{"source": "patent US5798375A", "about": "“Treatment of arteriosclerosis and xanthoma” (Sankyo Company, Limited, priority 1995, dated 1998)", "key": {"[1]": {"assay": "Example 1: plasma total cholesterol in WHHL rabbits", "assay_type": "in vivo", "conditions": "pravastatin 50 mg/kg/day oral gavage, troglitazone in diet containing 100 mg/kg", "experimental": "(§1) WHHL rabbits [2-3 months of age, the Watanabe heritable hyperlipidemic rabbit described in Biochimica et Biophysica Acta, 960, 294-302 (1988)] were randomly assigned to a control group (7 animals, group A), a group receiving pravastatin alone (5 animals, Group B), a group receiving troglitazone alone (7 animals, Group C), and a group receiving a combination of both active substances (6 animals, Group D). Pravastatin was administered orally by gavage at a dose of 50 mg/kg/day once-daily and troglitazone was given in the diet, containing 100 mg/kg of the substance for 32 weeks. The ingested amount was limited to a daily 120 g per rabbit. Blood was withdrawn from the animal immediately before starting the study and 4, 8, 12, 16, 20, 24, 28 and 32 weeks after starting the study and the total cholesterol levels (mg/dl) were determined for each blood sample. The levels are reported as a percentage (%) of the levels measured immediately before starting the study. The animals were sacrificed and necropsied at week 32 to examine (a) the percent lesion area (%) in the total, thoracic or abdominal portion of the aorta; (b) the stenosis (%) of the coronary arteries and (c) the incidence (%) of xanthoma in the digital joints."}, "WHHL rabbits [2]": {"tested_on": "WHHL rabbits", "assay": "Example 1: percent lesion area of the aorta in WHHL rabbits", "assay_type": "in vivo", "conditions": "week 32, mean ± standard error, pravastatin 50 mg/kg/day, troglitazone in diet containing 100 mg/kg, * p < 0.05 vs control", "experimental": "as §1\nThe values actually measured are represented as an average value±standard error in those Tables."}, "WHHL rabbits [3]": {"tested_on": "WHHL rabbits", "assay": "Example 2: percentage area covered by lesions, aortic arch and whole aorta", "assay_type": "in vivo, Male WHHL rabbits", "parameters": "Lesion Area, Aortic Arch, percentage against the control group / Lesion Area, Total Aorta, percentage against the control group: concentration or dose not given beside the values", "conditions": "oral, eight months", "experimental": "(§2) Each test compound was administered for eight months to the rabbits in the form of an aqueous suspension (0.5% carboxymethylcellulose added). In the control group, a 0.5% carboxymethylcellulose solution only was administered.\nThe values actually measured are represented by the mean value plus or minus standard error. The numbers in parentheses represent the percentage lesion area against the control group.\n*p<0.05, **p<0.01; significant difference against the control group under the [Mann-Whitney's U-Test A significant difference (p<0.05) was observed between Groups B and F, between Groups C and E and between Groups D and F at the aortic arch, and between Groups C and E over the total aorta."}, "WHHL rabbits [4]": {"tested_on": "WHHL rabbits", "assay": "Example 2: average thickening of intima in aorta", "assay_type": "in vivo, Male WHHL rabbits", "parameters": "Average thickening of intima, Aortic Arch, percentage against the control group / Average thickening of intima, Total Aorta, percentage against the control group: concentration or dose not given beside the values", "experimental": "as §2\nThe values actually measured are represented as the mean value plus or minus a standard error (μm). The numbers in parentheses represent the percentage intimal thickening against the control group. A significant difference was observed between Groups D and F at the aortic arch, and between Groups C and E and between Groups D and F over the total aorta (p<0.05) under the Mann-Whitney's U-Test.\nThe average thickening of the intima is calculated by the cross-sectional area of the aortic tunica intima one section from the arch and two sections from the thoracic and abdominal portions, divided by the length of the tunica media."}, "WHHL rabbits [5]": {"tested_on": "WHHL rabbits", "assay": "Example 2: aortic cholesterol content", "assay_type": "in vivo, Male WHHL rabbits", "experimental": "as §2\nThe aortic cholesterol content was measured The tunica media and tunica intima at the aortic arch and at the thoracic and abdominal aorta were peeled away with tweezers and cut into pieces. The pieces were extracted with a 2:1 by volume mixture of chloroform and methanol.\nThe chloroform phase was separated and evaporated to dryness and the residue was dissolved in isopropanol. The total cholesterol and the free cholesterol were measured by a conventional enzymatic method.\nData are expressed by the mean plus or minus standard error (mg/g tissue). The values in parentheses indicate the percentage against the control. A significant difference against the control group was observed by the unpaired student t-test: […]"}, "WHHL rabbits [6]": {"tested_on": "WHHL rabbits", "assay": "Example 2: incidence and degree of xanthoma of the four legs", "assay_type": "in vivo, Male WHHL rabbits", "parameters": "Frequency of massive xanthoma: unit not given here", "experimental": "as §2\nThe incidence and the degree of xanthoma of the four legs were measured."}, "[7]": {"tested_on": "Male New Zealand white rabbits", "assay": "Example 3: regression of established atherosclerotic lesions in the cholesterol-fed rabbit model", "assay_type": "in vivo", "conditions": "for Rate of lesion area, against the control group: figure in parentheses; for Rate of lesion area: thoracic aorta, two months, mean ± standard error, control 29 ± 20", "experimental": "The rabbits were grouped randomly (3-9 animals per group) and the test samples were administered orally for two months, while they were fed with a normolipidaemic diet. […] The results are shown in terms of the percentage of lesion area in the thoracic aorta."}, "[8]": {"tested_on": "coronary arteriosclerosis and xanthoma", "conditions": "literature: Biochim. Biophys. Acta 960, 294-302 (1988); Atherosclerosis 83, 69-80 (1990); cited from earlier work"}, "[9]": {"conditions": "oral, eight months, control 100 (14/14), *p < 0.05, **p < 0.01 vs control"}}, "data": [{"smiles": "CC[C@H](C)C(=O)O[C@H]1C[C@H](O)C=C2C=C[C@H](C)[C@H](CC[C@@H](O)C[C@@H](O)CC(=O)O)[C@H]21", "note": "[Pravastatin, sodium 1,2,6,7,8,8a-hexahydro-6,8-tetrahydroxy-2-methyl-1-naphthaleneheptanoate]", "values": [{"measurement": "total cholesterol level, % of level before starting the study", "setting": "[1]; week 4", "result": 87, "unit": "%"}, {"measurement": "total cholesterol level, % of level before starting the study", "setting": "[1]; week 8", "result": 87, "unit": "%"}, {"measurement": "total cholesterol level, % of level before starting the study", "setting": "[1]; week 12", "result": 81, "unit": "%"}, {"measurement": "total cholesterol level, % of level before starting the study", "setting": "[1]; week 16", "result": 81, "unit": "%"}, {"measurement": "total cholesterol level, % of level before starting the study", "setting": "[1]; week 20", "result": 75, "unit": "%"}, {"measurement": "total cholesterol level, % of level before starting the study", "setting": "[1]; week 24", "result": 68, "unit": "%"}, {"measurement": "total cholesterol level, % of level before starting the study", "setting": "[1]; week 28", "result": 68, "unit": "%"}, {"measurement": "total cholesterol level, % of level before starting the study", "setting": "[1]; week 32", "result": 60, "unit": "%"}, {"measurement": "Lesion area, Abdominal aorta", "setting": "WHHL rabbits [2]; control 29.9 ± 4.4", "result": "28.2 ± 8.1", "unit": "%"}, {"measurement": "Lesion Area, Total Aorta", "setting": "WHHL rabbits [2]; control 65.7 ± 3.9", "result": "53.8 ± 8.2", "unit": "%"}, {"measurement": "Lesion area, Thoracic aorta", "setting": "WHHL rabbits [2]; control 79.3 ± 5.4", "result": "64.6 ± 10.4", "unit": "%"}, {"measurement": "Lesion Area, Aortic Arch, percentage against the control group", "setting": "WHHL rabbits [3]; number in parentheses", "result": 72, "unit": "%"}, {"measurement": "Lesion Area, Total Aorta, percentage against the control group", "setting": "WHHL rabbits [3]; number in parentheses", "result": 70, "unit": "%"}, {"measurement": "Lesion Area, Total Aorta", "setting": "WHHL rabbits [3]; pravastatin 50, pioglitazone 20, Compound A 10 mg/kg, mean ± standard error, *p<0.05, **p<0.01 vs control", "result": "35 ± 6", "unit": "%"}, {"measurement": "Lesion Area, Aortic Arch", "setting": "WHHL rabbits [3]; pravastatin 50, pioglitazone 20, Compound A 10 mg/kg, mean ± standard error, control 82 ± 5, *p<0.05, **p<0.01 vs control", "result": "59 ± 11", "unit": "%"}, {"measurement": "suppression of intimal thickening", "setting": "WHHL rabbits [4]; combinations compared with Groups C and D", "result": "slight suppression of intimal thickening"}, {"measurement": "Average thickening of intima, Aortic Arch, percentage against the control group", "setting": "WHHL rabbits [4]; number in parentheses", "result": 82, "unit": "%"}, {"measurement": "Average thickening of intima, Total Aorta, percentage against the control group", "setting": "WHHL rabbits [4]; number in parentheses", "result": 82, "unit": "%"}, {"measurement": "Average thickening of intima in aorta, Total Aorta", "setting": "WHHL rabbits [4]; oral, eight months, pravastatin 50, pioglitazone 20, Compound A 10 mg/kg, mean ± standard error, control 154 ± 33", "result": "126 ± 22", "unit": "μm"}, {"measurement": "Average thickening of intima in aorta, Aortic Arch", "setting": "WHHL rabbits [4]; oral, eight months, pravastatin 50, pioglitazone 20, Compound A 10 mg/kg, mean ± standard error, control 237 ± 63", "result": "194 ± 42", "unit": "μm"}, {"measurement": "Cholesterol level of Thoracic and Abdominal Aorta, Esterified", "setting": "WHHL rabbits [5]; mean ± standard error, control 5.3 ± 1.7", "result": "4.7 ± 0.7", "unit": "mg/g tissue"}, {"measurement": "Cholesterol Content of Aortic Arch, Esterified", "setting": "WHHL rabbits [5]; mean ± standard error, control 6.5 ± 1.4, *p < 0.05", "result": "6.4 ± 1.1", "unit": "mg/g tissue"}, {"measurement": "Cholesterol level of Thoracic and Abdominal Aorta, Free", "setting": "WHHL rabbits [5]; mean ± standard error, control 14.8 ± 2.3, *p < 0.05 vs control", "result": "12.5 ± 1.3", "unit": "mg/g tissue"}, {"measurement": "Cholesterol level of Thoracic and Abdominal Aorta, Total", "setting": "WHHL rabbits [5]; mean ± standard error, control 20.1 ± 2.3, *p < 0.05, **p < 0.02 vs control", "result": "17.2 ± 1.6", "unit": "mg/g tissue"}, {"measurement": "Cholesterol Content of Aortic Arch, Free", "setting": "WHHL rabbits [5]; mean ± standard error, control 20.6 ± 2.9", "result": "18.6 ± 4.4", "unit": "mg/g tissue"}, {"measurement": "Cholesterol Content of Aortic Arch, Total", "setting": "WHHL rabbits [5]; mean ± standard error, control 27.1 ± 3.3", "result": "24.9 ± 5.2", "unit": "mg/g tissue"}, {"measurement": "Cholesterol Content of Aortic Arch, Esterified, percentage against the control", "setting": "WHHL rabbits [5]; number in parentheses", "result": 98, "unit": "%"}, {"measurement": "Cholesterol Content of Aortic Arch, Free, percentage against the control", "setting": "WHHL rabbits [5]; number in parentheses", "result": 90, "unit": "%"}, {"measurement": "Cholesterol Content of Aortic Arch, Total, percentage against the control", "setting": "WHHL rabbits [5]; number in parentheses", "result": 92, "unit": "%"}, {"measurement": "Cholesterol level of Thoracic and Abdominal Aorta, Esterified, percentage against the control", "setting": "WHHL rabbits [5]; number in parentheses", "result": 89, "unit": "%"}, {"measurement": "Cholesterol level of Thoracic and Abdominal Aorta, Free, percentage against the control", "setting": "WHHL rabbits [5]; number in parentheses", "result": 84, "unit": "%"}, {"measurement": "Cholesterol level of Thoracic and Abdominal Aorta, Total, percentage against the control", "setting": "WHHL rabbits [5]; number in parentheses", "result": 86, "unit": "%"}, {"measurement": "Frequency of massive xanthoma", "setting": "WHHL rabbits [6]; control 57, *p < 0.05, **p < 0.01 vs control", "result": 42}, {"measurement": "incidence of xanthoma", "setting": "WHHL rabbits [6]; forelegs and hindlegs", "result": "slightly less frequent incidence of xanthoma"}, {"measurement": "Distribution of severity of lesion: (-) no lesions", "setting": "WHHL rabbits [6]; number of legs, control 0", "result": 3}, {"measurement": "Distribution of severity of lesion: (+++) severe lesion", "setting": "WHHL rabbits [6]; number of legs, control 6", "result": 2}, {"measurement": "Distribution of severity of lesion: (++) moderate lesion", "setting": "WHHL rabbits [6]; number of legs, control 10", "result": 8}, {"measurement": "Distribution of severity of lesion: (+) slight lesion", "setting": "WHHL rabbits [6]; number of legs, control 12", "result": 11}, {"measurement": "Incidence of xanthoma, Forelegs", "setting": "WHHL rabbits [6]; [9]", "result": 100, "unit": "%"}, {"measurement": "Incidence of xanthoma, Hindlegs", "setting": "WHHL rabbits [6]; [9]", "result": 75, "unit": "%"}, {"measurement": "Incidence of xanthoma, Total", "setting": "WHHL rabbits [6]; oral, eight months, control 100 (28/28), *p < 0.05, **p < 0.01 vs control", "result": 88, "unit": "%"}, {"measurement": "Rate of lesion area, against the control group", "setting": "[7]; 3 mg/kg", "result": 103}, {"measurement": "Rate of lesion area, against the control group", "setting": "[7]; 5 mg/kg", "result": 79}, {"measurement": "Rate of lesion area", "setting": "[7]; 3 mg/kg oral", "result": "30 ± 12", "unit": "%"}, {"measurement": "Rate of lesion area", "setting": "[7]; 5 mg/kg oral", "result": "23 ± 9", "unit": "%"}, {"measurement": "prevention of coronary arteriosclerosis and xanthoma, efficacy", "setting": "[8]", "result": "may be prevented in rabbits receiving pravastatin, but its efficacy remains insufficient"}]}]}
